Several values for one entry are separate records, joined by “and”; a condition that tells them apart may be missing. Equal values may be shown once.
How the values were obtained:
HDAC6 = target: T1, HDAC6 (Homo sapiens, UniProt Q9UBN7); test: In vitro HDAC6 inhibition; type: biochemical; conditions: for inhibition at 10 µM: HDAC6, 10 μM; for IC50: HDAC6, Table 1, read-out: IC50
T1 sequence (Q9UBN7 1-1215): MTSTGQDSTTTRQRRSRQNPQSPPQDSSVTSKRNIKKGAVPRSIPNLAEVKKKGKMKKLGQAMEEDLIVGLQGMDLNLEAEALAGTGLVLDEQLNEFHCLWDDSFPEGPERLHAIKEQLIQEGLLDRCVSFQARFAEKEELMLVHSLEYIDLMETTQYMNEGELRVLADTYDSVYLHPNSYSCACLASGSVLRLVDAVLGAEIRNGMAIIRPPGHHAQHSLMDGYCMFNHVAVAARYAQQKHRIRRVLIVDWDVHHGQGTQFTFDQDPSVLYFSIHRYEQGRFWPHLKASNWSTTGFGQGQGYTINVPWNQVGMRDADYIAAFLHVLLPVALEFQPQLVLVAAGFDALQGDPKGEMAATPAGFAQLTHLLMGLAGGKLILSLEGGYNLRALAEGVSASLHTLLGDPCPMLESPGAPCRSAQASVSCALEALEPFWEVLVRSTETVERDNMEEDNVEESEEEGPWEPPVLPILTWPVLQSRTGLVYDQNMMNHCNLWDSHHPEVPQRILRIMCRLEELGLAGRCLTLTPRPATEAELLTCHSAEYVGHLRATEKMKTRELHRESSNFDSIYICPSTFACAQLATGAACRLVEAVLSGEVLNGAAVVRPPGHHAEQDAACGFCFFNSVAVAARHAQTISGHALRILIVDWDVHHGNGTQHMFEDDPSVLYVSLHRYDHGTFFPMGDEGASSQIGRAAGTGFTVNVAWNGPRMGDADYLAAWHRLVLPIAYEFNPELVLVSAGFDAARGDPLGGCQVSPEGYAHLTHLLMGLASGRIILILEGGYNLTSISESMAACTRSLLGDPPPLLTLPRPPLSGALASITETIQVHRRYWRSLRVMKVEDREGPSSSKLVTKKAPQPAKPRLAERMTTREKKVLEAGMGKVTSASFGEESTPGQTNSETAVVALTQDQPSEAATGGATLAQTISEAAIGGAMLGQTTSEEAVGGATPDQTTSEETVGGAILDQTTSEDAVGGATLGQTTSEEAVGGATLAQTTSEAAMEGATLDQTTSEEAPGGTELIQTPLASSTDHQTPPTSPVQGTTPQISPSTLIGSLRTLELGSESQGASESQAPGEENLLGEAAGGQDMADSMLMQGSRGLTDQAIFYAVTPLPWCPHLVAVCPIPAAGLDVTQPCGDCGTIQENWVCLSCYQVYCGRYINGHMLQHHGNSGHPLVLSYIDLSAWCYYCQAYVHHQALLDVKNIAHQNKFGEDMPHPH

AP-1 = conditions: published before; cited from earlier work
[1] = system: glucocorticoid receptor, GR; test: GRE-dependent luciferase reporter p(GRE)2-50-luc in A549 cells; type: cell-based; conditions: A549; DEX 1 μM; CpdA 10 μM before DEX
[2] = system: acetylation of α-tubulin in Neuro-2a cells; test: Acetylation level of α-tubulin in Neuro-2a cells (Western blot); type: cell-based, Mouse; conditions: overnight, Neuro-2a; for normalized ratio Acetyl α-Tubulin/α-Tubulin against Tubastatin A, Average: Average of N = 1 to 4
Method: FIG. 1: Potency of inhibiting HDAC6 by compounds 7a, 7b and 13a in Neuro-2a cells. A. Cells were treated overnight with different concentrations of the HDAC6 inhibitors and blotted of the acetylation of α-tubulin.
Mouse neuroblastoma (Neuro-2a) cells were grown in a 1:1 mix of D-MEM (Dulbecco's Modified Eagle Medium) and F12 medium supplemented with glutamax (Invitrogen), 100 μg/ml streptomycin, 100 U/ml penicillin (Invitrogen), 10% fetal calf serum (Greiner Bio-one), 1% non-essential amino acids (Invitrogen) and 1.6% NaHCO3 (Invitrogen) at 37° C. and 7.5% CO2. To split the cells, cells were washed with Versene (Invitrogen) and dissociated with 0.05% Trypsine-EDTA (Invitrogen).
For sodium dodecyl sulfate-polyacrylamide gel electrophoresis (SDS-PAGE) analysis, transfected cells were collected using the EpiQuik Total Histone Extraction Kit (EpiGentek) according to manufacturer's instructions. Protein concentrations were determined using microBCA kit (Thermo Fisher Scientific Inc., Pittsburgh, Pa., USA) according to manufacturer's instructions. Before resolving the samples on a 12% SDS-PAGE gel, samples containing equal amounts of protein were supplemented with reducing sample buffer (Thermo Scientific) and boiled at 95° C. for 5 min. After electrophoresis, the proteins were transferred to a polyvinylidene difluoride (PVDF) membrane (Millipore Corp., Bedford, Mass., USA). The non-specific binding was blocked by incubation of the membrane in 5% bovine serum albumin (BSA), diluted in Tris Buffered Saline Tween (TBST, 50 mM TRIS, 150 mM NaCl, 0.1% Tween-20 (Applichem, Darmstadt, Duitsland) for 1 h at room temperature followed by incubation with primary antibodies overnight. The antibodies, diluted in TBS-T, were directed against α-tubulin (1/5000, T6199, Sigma-Aldrich), and acetylated α-tubulin (1/5000, T6793 monoclonal, Sigma-Aldrich). The secondary antibodies, coupled to alkaline phosphatase (anti-mouse or anti-rabbit, 1/5000, Sigma-Aldrich) were used. Blots were visualised by adding the ECF substrate (Enhanced Chemical Fluorescence, GE Healthcare, Uppsala, Sweden) and imaged with the ImageQuant_LAS 4000. A mild reblotting buffer (Millipore) was applied to strip the blots. ImageQuant TL version 7.0-software was used to quantify the blots.
Neuro-2a cells were treated overnight with different concentrations of the HDAC6 inhibitors and the effect on the acetylation level of α-tubulin was determined using Western blots (FIG. 1).

[3] = system: TNF-α and IL-6 in LPS stimulated human THP-1 macrophages; conditions: reported; cited from earlier work

| inhibition at 10 µM (HDAC6) [%] | IC50 (HDAC6) [nM] | melting point [°C] | Compound | further results |
| --- | --- | --- | --- | --- |
| 84.9 | 850 | 179 | O=C(NO)c1ccc(N(Cc2ccccc2)Cc2csc3ccc(Br)cc23)cc1 [Compound 8b, 5-bromo-3-[N-benzyl-N-(4-hydroxycarbamoylphenyl)aminomethyl]-benzothiophene] |  |
| 47.9 |  | 126 | O=C(NO)c1ccc(N(Cc2ccccc2)Cc2csc3ccc(-c4ccccc4)cc23)cc1 [Compound 8c, 3-[N-benzyl-N-(4-hydroxycarbamoylphenyl)aminomethyl]-5-phenyl-benzothiophene] |  |
| 89.9 | 470 | 178 | O=C(NO)c1ccc(N(Cc2ccccc2)Cc2csc3ccccc23)cc1 [Compound 8a, 3-[N-benzyl-N-(4-hydroxycarbamoylphenyl)aminomethyl]-benzothiophene] |  |
| 61.1 |  | 102 | O=C(NO)c1ccc(N(Cc2ccccc2)Cc2csc3cc(-c4ccccc4)ccc23)cc1 [Compound 14b, 3-[N-benzyl-N-(4-hydroxycarbamoylphenyl)aminomethyl]-6-phenyl-benzothiophene] |  |

More lines, now with the values behind:

| Compound | inhibition at 10 µM (HDAC6) [%] | IC50 (HDAC6) [nM] | melting point [°C] | further results |
| --- | --- | --- | --- | --- |
| O=C(NO)c1ccc(NCc2csc3ccc(-c4ccccc4)cc23)cc1 [Compound 7c, 3-[(4-hydroxycarbamoylphenyl)aminomethyl]-5-phenyl-benzothiophene] | 95.1 | 310 | 181 |  |
| O=C(NO)c1ccc(NCc2c[nH]c3ccccc23)cc1 [Compound 18, 3-[(4-hydroxycarbamoylphenyl)aminomethyl]indole] | 99 | 200 | 132.5 |  |
| O=C(NO)c1ccc(N(Cc2ccccc2)Cc2csc3cc(Br)ccc23)cc1 [Compound 14a, 6-bromo-3-[N-benzyl-N-(4-hydroxycarbamoylphenyl)aminomethyl]-benzothiophene] | 70.7 | 2100 | 97.5 |  |
| CNCC(Cl)c1ccc(OC(C)=O)cc1.Cl (stereo not drawn) [CpdA, reference compound] |  |  |  | targeting of AP-1-driven promoters (AP-1): does not target AP-1-driven promoters; GRE-dependent reporter gene activity, reference compounds [1]: able to lower the GRE-dependent reporter gene activity |
| Cc1cc(C(=O)NO)ccc1NCc1csc2ccccc12 [Compound 7d, 3-[(4-hydroxycarbamoyl-2-methylphenyl)aminomethyl]-benzothiophene] | 73.4 | 2400 | 190 |  |
| CN1CCc2c(c3ccccc3n2Cc2ccc(C(=O)NO)cc2)C1 [Tub A, Tubastatin A, reference compound] |  |  |  | normalized ratio Acetyl α-Tubulin/α-Tubulin against Tubastatin A, Average ([2]; 50 nM): 34.97 and 25.12 and 23.86; normalized ratio Acetyl α-Tubulin/α-Tubulin against Tubastatin A, Average ([2]; 100 nM): 44.00 and 41.43 and 34.18; normalized ratio Acetyl α-Tubulin/α-Tubulin against Tubastatin A, Average ([2]; 500 nM): 66.24 and 73.15 and 70.36; normalized ratio Acetyl α-Tubulin/α-Tubulin against Tubastatin A, Average ([2]; 1 μM): 100.00; normalized ratio Acetyl α-Tubulin/α-Tubulin against Tubastatin A ([2]; 1 μM, single experiments N = 1 to 4, Tub A 1 μM = 100): 100.00; inhibition of TNF-α and IL-6 [3]: significantly inhibit TNF-α and IL-6 |
| O=C(NO)c1ccc(NCc2csc3cc(-c4ccccc4)ccc23)cc1 [Compound 13b, 3-[(4-hydroxycarbamoylphenyl)aminomethyl]-6-phenyl-benzothiophene] | 89.8 | 660 | 190.5 |  |

From patent US9993459B2, “Selective HDAC6 inhibitors and uses thereof” (Universiteit Gent, priority 2015, dated 2018)
